# US10172814B2, “Substituted pyridyl-cycloalkyl-carboxylic acids, compositions containing them and medical uses thereof” (BAYER PHARMA AKTIENGESELLSCHAFT, priority 2014, dated 2019)
# Target: human PTGES (Homo sapiens (Human), UniProt O14684)
# Assay: Human PTGES biochemical enzyme inhibition assay (conversion of PGH2 to PGE2, TR-FRET)
# Details: Enzymatic conversion of PGH2 to PGE2; read-out: Human PTGES IC50
# Outline: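 FLAG-tagged human PTGES from Hi-5 insect cells preincubated 15–20 min with compound in pH 7.2 phosphate buffer with 2.5 mM reduced glutathione; reaction started with 8 nM PGH2 final, stopped with SnCl2/KF.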
# Chain of human PTGES (O14684 whole entry): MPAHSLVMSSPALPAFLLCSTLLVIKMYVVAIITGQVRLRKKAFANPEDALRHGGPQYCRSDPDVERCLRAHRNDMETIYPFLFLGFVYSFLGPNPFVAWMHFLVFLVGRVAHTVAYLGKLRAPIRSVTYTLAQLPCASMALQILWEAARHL
row,Structure (SMILES),IC50 [µM]
1,"COCc1cncc(-c2ccc(C(C(=O)Nc3cccc(CCC(=O)O)c3C)C3CCCC3)cc2)c1 (racemic) [Example 10, (R/S) 3-{3-[(Cyclopentyl{4-[5-(methoxymethyl)pyridin-3-yl]phenyl}acetyl)amino]-2-methylphenyl}propanoic acid]",0.47
2,"Cc1cc(-c2ccc(C(C(=O)Nc3cccc(CCC(=O)O)c3C)C3CCC3)cc2)cnc1C (racemic) [Example 59, (R/S) 3-[3-({Cyclobutyl[4-(5,6-dimethylpyridin-3-yl)phenyl]acetyl}amino)-2-methylphenyl]propanoic acid]",0.193
3,"Cc1c(NC(=O)C(c2ccc(-c3cncc(Cl)c3)c(F)c2)C2CCC2)cccc1C(C)CC(=O)O (single isomer, unassigned; stereoisomer 3) [Example 152, 3-[3-({[4-(5-Chloropyridin-3-yl)-3-fluorophenyl](cyclobutyl)acetyl}amino)-2-methylphenyl]butanoic acid, Stereoisomer 3]",0.914
4,"CCc1cncc(-c2ccc(C(C(=O)Nc3cccc(CCC(=O)O)c3C)C3CCCC3)cc2)c1 (racemic) [Example 13, (R/S) 3-[3-({Cyclopentyl[4-(5-ethylpyridin-3-yl)phenyl]acetyl}amino)-2-methylphenyl]propanoic acid]",0.0782
5,"Cc1c(NC(=O)C(c2ccc(-c3cncc(Cl)c3)cc2)C2CCC2)cccc1C(C)CC(=O)O (single isomer, unassigned; stereoisomer 3) [Example 138]",2.04
6,"CCc1cncc(-c2ccc(C(C(=O)Nc3cccc(C(CC)CC(=O)O)c3C)C3CCCC3)cc2F)c1 (single isomer, unassigned) [Example 195, 3-[3-({cyclopentyl[4-(5-ethylpyridin-3-yl)-3-fluorophenyl]acetyl}amino)-2-methylphenyl]pentanoic acid, Single Enantiomer]",0.0105
7,"Cc1c(NC(=O)C(c2ccc(-c3cncc(C(F)(F)F)c3)c(F)c2)C2CCC2)cccc1C(C)CC(=O)O (mixture of isomers) [Example 145, (3R/S)-3-(3-{[(2R/S)-2-Cyclobutyl-2-{3-fluoro-4-[5-(trifluoromethyl)pyridin-3-yl]phenyl}acetyl]amino}-2-methylphenyl)butanoic acid]",0.0504
8,"Cc1ncc(-c2ccc(C(C(=O)Nc3cccc(CC(C)C(=O)O)c3C)C3CCCC3)cc2)cc1Cl (single isomer, unassigned; stereoisomer 2) [Example 84, 3-[3-({[4-(5-Chloro-6-methylpyridin-3-yl)phenyl](cyclopentyl)acetyl}amino)-2-methylphenyl]-2-methylpropanoic acid, Stereoisomer 2]",0.0411
9,"Cc1c(NC(=O)C(c2ccc(-c3cncc(Cl)c3)c(F)c2)C2CCC2)cccc1C(C)CC(=O)O (single isomer, unassigned; stereoisomer 4) [Example 153, 3-[3-({[4-(5-Chloropyridin-3-yl)-3-fluorophenyl](cyclobutyl)acetyl}amino)-2-methylphenyl]butanoic acid, Stereoisomer 4]",0.0117
10,"Cc1c(NC(=O)C(c2ccc(-c3cncc(Cl)c3)cc2)C2CCC2)cccc1C(C)CC(=O)O (single isomer, unassigned; stereoisomer 4) [Example 139]",0.107
11,"Cc1cc(C(C(=O)Nc2cccc(CCC(=O)O)c2C)C2CCCC2)c(F)cc1-c1cncc(C(F)(F)F)c1 (racemic) [Example 183, (R/S) 3-{3-[(cyclopentyl{2-fluoro-5-methyl-4-[5-(trifluoromethyl)pyridin-3-yl]phenyl}acetyl)amino]-2-methylphenyl}propanoic acid]",1
12,"Cc1ncc(-c2ccc([C@H](C(=O)Nc3cccc(N(C)CC(=O)O)c3C)C3CCCC3)cc2)cc1Cl [Example 187, N-[3-({(2R)-2-[4-(5-chloro-6-methylpyridin-3-yl)phenyl]-2-cyclopentylacetyl}amino)-2-methylphenyl]-N-methylglycine]",0.0239
13,"Cc1ncc(-c2ccc(C(C(=O)Nc3cccc(CCC(=O)O)c3C)C3CCC3)cc2)cc1F (racemic) [Example 62, (R/S) 3-[3-({[4-(5-Fluoro-6-methylpyridin-3-yl)phenyl](cyclobutyl)acetyl}amino)-2-methylphenyl]propanoic acid]",0.148
14,"Cc1c(CCC(=O)O)cccc1NC(=O)C(c1ccc(-c2cnc(F)c(C(F)(F)F)c2)c(F)c1)C1CCCC1 (single isomer, unassigned; (-)) [Example 197]",0.0193
15,"Cc1c(CCC(=O)O)cccc1NC(=O)C(c1ccc(-c2cncc(OC3CCOCC3)c2)cc1)C1CCCC1 (racemic) [Example 15, (R/S) 3-{3-[(Cyclopentyl{4-[5-(tetrahydro-2H-pyran-4-yloxy)pyridin-3-yl]phenyl}acetyl)amino]-2-methylphenyl}propanoic acid]",0.114
16,"CCOc1cncc(-c2ccc(C(C(=O)Nc3cccc(C(C)CC(=O)O)c3C)C3CCCC3)cc2)c1 (mixture of isomers) [Example 90, (3R/S)-3-[3-({(2R/S)-2-Cyclopentyl-2-[4-(5-ethoxypyridin-3-yl)phenyl]acetyl}amino)-2-methylphenyl]butanoic acid]",0.108
17,"Cc1c(NC(=O)C(c2ccc(-c3cncc(C(F)(F)F)c3)cc2)C2CCCC2)cccc1C(C)CC(=O)O (mixture of isomers) [Example 91, (3R/S)-3-(3-{[(2R/S)-2-Cyclopentyl-2-{4-[5-(trifluoromethyl)pyridin-3-yl]phenyl}acetyl]amino}-2-methylphenyl)butanoic acid]",0.0203
18,"Cc1c(CCC(=O)O)cccc1NC(=O)C(c1cc(F)c(-c2cncc(C(F)(F)F)c2)cc1F)C1CCCC1 (racemic) [Example 179, (R/S) 3-{3-[(cyclopentyl{2,5-difluoro-4-[5-(trifluoromethyl)pyridin-3-yl]phenyl}acetyl)amino]-2-methylphenyl}propanoic acid]",0.0852
19,"CCC(CC(=O)O)c1cccc(NC(=O)C(c2ccc(-c3cncc(CC(C)C)c3)c(F)c2)C2CCCC2)c1C (single isomer, unassigned) [Example 194, 3-[3-({cyclopentyl[3-fluoro-4-(5-isobutylpyridin-3-yl)phenyl]acetyl}amino)-2-methylphenyl]pentanoic acid, single enantiomer]",0.00682
20,"Cc1ncc(-c2ccc(C(C(=O)Nc3cccc(CCC(=O)O)c3C)C3CCCC3)cc2)cc1F (racemic) [Example 211, (R/S) 3-[3-({cyclopentyl[4-(5-fluoro-6-methylpyridin-3-yl)phenyl]acetyl}amino)-2-methylphenyl]propanoic acid]",0.19
21,"Cc1c(NC(=O)C(c2ccc(-c3cncc(C(F)(F)F)c3)cc2)C2CCCC2)cccc1C1CC1C(=O)O (centres unmarked) [Example 156, 2-(3-{[2-cyclopentyl-2-{4-[5-(trifluoromethyl)pyridin-3-yl]phenyl}acetyl]amino}-2-methylphenyl)cyclopropanecarboxylic acid]",0.0329
22,"CCOc1cncc(-c2ccc(C(C(=O)Nc3cccc(C4CC4C(=O)O)c3C)C3CCCC3)cc2)c1 (centres unmarked) [Example 155, 2-[3-({2-cyclopentyl-2-[4-(5-ethoxypyridin-3-yl)phenyl]acetyl}amino)-2-methylphenyl]cyclopropanecarboxylic acid]",0.158
23,Cc1c(NC(=O)C(c2ccc(-c3cncc(Cl)c3)c(F)c2)C2CCC2)cccc1C(C)CC(=O)O (centres unmarked) [Example 149],0.0521
